Where two headings read alike, the source gives them in different places.
Experiments:
[1] = target: T1, NHE3 (Homo sapiens, UniProt P48764); test: Cell-based assay of NHE-3 activity (pre-incubation inhibition), human; conditions: human Preincubation; for pIC50: 0-30 μM test compound
T1 construct: expressed in transfected cells
T1 sequence (P48764 26-834): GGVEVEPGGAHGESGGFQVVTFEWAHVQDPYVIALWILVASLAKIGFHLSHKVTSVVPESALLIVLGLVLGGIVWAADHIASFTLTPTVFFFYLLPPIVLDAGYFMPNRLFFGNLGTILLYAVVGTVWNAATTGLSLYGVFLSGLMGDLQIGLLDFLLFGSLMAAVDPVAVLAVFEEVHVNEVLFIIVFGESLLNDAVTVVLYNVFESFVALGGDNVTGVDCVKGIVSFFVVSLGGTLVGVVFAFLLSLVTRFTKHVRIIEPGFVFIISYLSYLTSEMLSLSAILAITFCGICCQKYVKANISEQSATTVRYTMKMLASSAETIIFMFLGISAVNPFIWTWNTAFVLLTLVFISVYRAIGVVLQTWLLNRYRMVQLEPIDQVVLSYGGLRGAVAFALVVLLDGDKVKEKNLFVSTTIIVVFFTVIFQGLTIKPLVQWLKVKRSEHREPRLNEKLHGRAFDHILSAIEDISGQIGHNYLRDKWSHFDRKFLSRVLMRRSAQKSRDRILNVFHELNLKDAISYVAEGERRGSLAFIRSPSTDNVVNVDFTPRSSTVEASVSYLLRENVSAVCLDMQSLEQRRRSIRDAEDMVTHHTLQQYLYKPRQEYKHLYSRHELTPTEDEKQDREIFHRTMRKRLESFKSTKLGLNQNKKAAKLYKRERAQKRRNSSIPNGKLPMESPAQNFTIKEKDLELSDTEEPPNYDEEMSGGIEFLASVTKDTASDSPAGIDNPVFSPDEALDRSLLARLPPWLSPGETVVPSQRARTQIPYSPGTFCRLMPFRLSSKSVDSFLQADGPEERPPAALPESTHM
T1 sequence (Q99653 2-195 partner limits assumed): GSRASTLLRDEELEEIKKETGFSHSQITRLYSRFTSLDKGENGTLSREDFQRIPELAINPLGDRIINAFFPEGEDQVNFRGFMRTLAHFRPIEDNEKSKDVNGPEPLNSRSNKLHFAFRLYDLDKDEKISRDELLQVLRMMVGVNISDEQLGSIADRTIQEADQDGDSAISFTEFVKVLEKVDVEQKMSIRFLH
In short: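 Activity read as initial rate of BCECF fluorescence ratio change per minute (ex 439/505, em 538 nm) following NH4Cl prepulse acid loading. Compound (0–30 μM) present during 10 min Na+-free acidification at room temperature; cells were PS120 fibroblasts stably co-expressing human NHE3 and NHERF2.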

[2] = target: T1, NHE3; test: Cell-based assay of NHE-3 activity (persistent inhibition), human; conditions: human Persistence, 60 min incubation then washout
In short: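 Persistent inhibition: compound (0-30 μM, 60 min, RT, NaCl-HEPES pH 7.4) removed before assay. Human NHE3/NHERF2 PS120 cells were then BCECF-loaded during NH4Cl pulse (30 min, 37 °C), acidified in Na+-free buffer, and Na+ added 10 min after washout; antiport measured as initial fluorescence-ratio change per minute.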

[3] = system: absorption of sodium from the intestinal lumen; test: Inhibition of intestinal sodium absorption in mice; format: in vivo; conditions: CD-1 mice, 15 mg/kg oral gavage twice daily; for response vs control in vivo at 15 mg/kg: Mus musculus, 72 h, day 3, normalized to dietary sodium intake
Procedure: Urinary and fecal sodium excretions were measured to assess the ability of selected example compounds to inhibit the absorption of sodium from the intestinal lumen. In addition, an assessment of the absence or presence of diarrhea in response to compound treatment was made. Approximately eight-week old, male, CD-1 mice were purchased from Envigo (Livermore, Calif.), were housed 6 per cage and acclimated for at least 48 hours before study initiation. Animals were fed Harlan Teklad Global TD.160470 rodent chow (Madison, Wis.), standard laboratory rodent chow Harlan Teklad Global 2018 with the addition of 0.4% inorganic phosphorous. […] To initiate the study, mice were weighed and then individually placed in metabolic cages. Following a 3-day acclimation period to the metabolic cage, a 24-hr baseline collection of urine and feces was performed. […] Each day, measurements of body weight. 24-hour food intake, water intake, urine volume and wet fecal weight were recorded, along with any observation of diarrhea. Fecal samples were dried using a lyophilizer for at least 3 days, following which dry weight was recorded and fecal fluid content was calculated based on the difference between the wet and dry stool weights. Fecal fluid content on day 3 of compound treatment was calculated as a change from the vehicle group mean. For urine samples, the volumes were determined gravimetrically. Feces and urine were analyzed for sodium content by microwave plasma-atomic emission spectroscopy or ion chromatography, respectively. Urine samples were analyzed on an ion chromatography system (Thermo Fisher ICS-3000 or ICS-5000+) coupled with conductivity detectors. Chromatographic separation of cations was performed using an IonPac CS12A (Thermo Fisher) 2×250 mm analytical column with an isocratic elution using […] methanesulfonic acid. Concentrations were interpolated from a a standard curve (prepared in 10 mM HCl) for sodium ion based on retention time and peak area. Fecal sample analysis by Microwave Plasma Atomic Emission Spectrometry (MP-AES). Dry fecal samples were ground into a fine powder on a homogenizer and the ground samples (400-600 mg aliquots weighed) were digested with nitric acid by microwave method (Mars 6). These digested samples were diluted with 1% Nitric acid and analyzed on Agilent 4100 MP-AES. Concentrations were calculated relative to a standard curve (prepared in 1% Nitric acid) for sodium based on the signal intensity. Sodium was detected at a wavelength of 588.995 nm. Twenty-four-hour urinary sodium excretion (ma/24-hours) was calculated by multiplying urinary sodium concentration by 24-hour urine volume. Twenty-four-hour fecal sodium excretion (mg/24-hours) was calculated by multiplying fecal sodium concentration by 24-hour dry fecal weight. The urinary and fecal sodium excretion on day 3 of compound treatment were normalized to dietary sodium intake and expressed as a percentage of the vehicle mean.

SMILES	% inhibition [1]	% inhibition [2]	pIC50 [1]	pIC50 [2]	Fecal fluid content (Δ from vehicle) ([3]; day 3, change from vehicle group mean)	response vs control in vivo at 15 mg/kg ([3]; read-out: Fecal Na Excretion (% of vehicle)) [%]	response vs control in vivo at 15 mg/kg ([3]; read-out: Urinary Na Excretion (% of vehicle)) [%]
CN(C)[C@@H]1CCCN([C@H]2Cc3c(Cl)cc(Cl)cc3[C@@H]2Oc2ccc(S(=O)(=O)NCCOCCOCCNC(=O)NCCCCNC(=O)NCCOCCOCCNS(=O)(=O)c3ccc(O[C@H]4c5cc(Cl)cc(Cl)c5C[C@@H]4N4CCC[C@@H](N(C)C)C4)c(F)c3)cc2F)C1 [Example 27, 3-[2-(2-[2-[(4-[[(1S,2S)-4,6-Dichloro-2-[(3R)-3-(dimethylamino)piperidin-1-yl]-2,3-dihydro-1H-inden-1-yl]oxy]-3-fluorobenzene)sulfonamido]ethoxy]ethoxy)ethyl]-1-[4-([[2-(2-[2-[(4-[[(1S,2S)-4,6-dichloro-2-[(3R)-3-(dimethylamino)piperidin-1-yl]-2,3-dihydro-1H-inden-1-yl]oxy]-3-fluorobenzene)sulfonamido]ethoxy]ethoxy)ethyl]carbamoyl]amino)butyl]urea; bis(trifluoroacetic acid)]	C (>70%)	C (>70%)	–	–	C (>10)	> 200	50 to 70
C[C@H]1CN([C@H]2Cc3c(C#N)cc(Cl)cc3[C@@H]2Oc2ccc(S(=O)(=O)N[C@H]3CCN(CCOCCNC(=O)NCCCCNC(=O)NCCOCCN4CC[C@H](NS(=O)(=O)c5ccc(O[C@H]6c7cc(Cl)cc(C#N)c7C[C@@H]6N6CCN[C@@H](C)C6)cc5)C4)C3)cc2)CCN1 [Example 134, 4-([(1S,2S)-6-Chloro-4-cyano-2-[(S)-3-methylpiperazin-1-yl]-2,3-dihydro-1H-inden-1-yl]oxy)-N—[(S)-1-(20-[(S)-3-([4-([(1S,2S)-6-chloro-4-cyano-2-[(S)-3-methylpiperazin-1-yl]-2,3-dihydro-1H-inden-1-yl]oxy)phenyl]sulfonamido)pyrrolidin-1-yl]-7,14-dioxo-3,18-dioxa-6,8,13,15-tetraazaicosyl)pyrrolidin-3-yl]benzenesulfonamide; bis(trifluoroacetic acid)]	C (>70%)	C (>70%)	C (NHE3 pIC50 > 7)	C (NHE3 pIC50 > 7)	–	–	–
C[C@H]1CN([C@H]2Cc3c(C#N)cc(Cl)cc3[C@@H]2Oc2ccc(S(=O)(=O)N[C@@H]3CCN(CCOCCNC(=O)NCCCCNC(=O)NCCOCCN4CC[C@@H](NS(=O)(=O)c5ccc(O[C@H]6c7cc(Cl)cc(C#N)c7C[C@@H]6N6CCN[C@@H](C)C6)cc5)C4)C3)cc2)CCN1 [Example 135]	C (>70%)	C (>70%)	C (NHE3 pIC50 > 7)	C (NHE3 pIC50 > 7)	–	–	–
C[C@@H]1CN([C@H]2Cc3c(C#N)cc(Cl)cc3[C@@H]2Oc2ccc(S(=O)(=O)N[C@H]3CCN(CCOCCNC(=O)NCCCCNC(=O)NCCOCCN4CC[C@H](NS(=O)(=O)c5ccc(O[C@H]6c7cc(Cl)cc(C#N)c7C[C@@H]6N6C[C@@H](C)N[C@@H](C)C6)cc5)C4)C3)cc2)C[C@H](C)N1 [Example 136]	C (>70%)	C (>70%)	C (NHE3 pIC50 > 7)	C (NHE3 pIC50 > 7)	–	–	–

Further lines, with some results ahead:

% inhibition [1]	% inhibition [2]	pIC50 [1]	pIC50 [2]	SMILES	Fecal fluid content (Δ from vehicle) ([3]; day 3, change from vehicle group mean)	response vs control in vivo at 15 mg/kg ([3]; read-out: Fecal Na Excretion (% of vehicle)) [%]	response vs control in vivo at 15 mg/kg ([3]; read-out: Urinary Na Excretion (% of vehicle)) [%]
C (>70%)	C (>70%)	C (NHE3 pIC50 > 7)	C (NHE3 pIC50 > 7)	C[C@@H]1CN([C@H]2Cc3c(C#N)cc(Cl)cc3[C@@H]2Oc2ccc(S(=O)(=O)N[C@@H]3CCN(CCOCCNC(=O)NCCCCNC(=O)NCCOCCN4CC[C@@H](NS(=O)(=O)c5ccc(O[C@H]6c7cc(Cl)cc(C#N)c7C[C@@H]6N6C[C@@H](C)N[C@@H](C)C6)cc5)C4)C3)cc2)C[C@H](C)N1 [Example 137, 4-([(1S,2S)-6-Chloro-4-cyano-2-[(3S,5R)-3,5-dimethylpiperazin-7-yl]-2,3-dihydro-1H-inden-1-yl]oxy)-N—[(R)-1-(20-[(R)-3-([4-([(1S,2S)-6-chloro-4-cyano-2-[(3S,5R)-3,5-dimethylpiperazin-1-yl]-2,3-dihydro-1H-inden-1-yl]oxy)phenyl]sulfonamido)pyrrolidin-1-yl]-7,14-dioxo-3,18-dioxa-6,8,13,15-tetraazaicosyl)pyrrolidin-3-yl]benzenesulfonamide; bis(trifluoroacetic acid)]	–	–	–
C (>70%)	C (>70%)	C (NHE3 pIC50 > 7)	C (NHE3 pIC50 > 7)	N#Cc1cc(Cl)cc2c1C[C@H](N1CCNCC1)[C@H]2Oc1ccc(S(=O)(=O)N[C@@H]2CCN(C(=O)CCCNC(=O)NCCCCNC(=O)NCCCC(=O)N3CC[C@@H](NS(=O)(=O)c4ccc(O[C@H]5c6cc(Cl)cc(C#N)c6C[C@@H]5N5CCNCC5)cc4)C3)C2)cc1 [Example 142, 4-([(1S,2S)-6-Chloro-4-cyano-2-(piperazin-1-yl)-2,3-dihydro-1H-inden-1-yl]oxy)-N—[(R)-1-(18-[(R)-3-([4-([(1S,2S)-6-chloro-4-cyano-2-(piperazin-1-yl)-2,3-dihydro-1H-inden-1-yl]oxy)phenyl]sulfonamido)pyrrolidin-1-yl]-6,13,18-trioxo-5,7,12,14-tetraazaoctadecanoyl)pyrrolidin-3-yl]benzenesulfonamide]	–	–	–
C (>70%)	A (NHE3 < 40%)	C (NHE3 pIC50 > 7)	C (NHE3 pIC50 > 7)	N#Cc1cc(Cl)cc2c1C[C@H](N1CCNCC1)[C@H]2Oc1ccc(S(N)(=O)=O)cc1 [Example 146, 4-([(1S,2S)-6-Chloro-4-cyano-2-(piperazin-1-yl)-2,3-dihydro-1H-inden-1-yl]oxy)benzenesulfonamide]	–	–	–
C (>70%)	C (>70%)	C (NHE3 pIC50 > 7)	C (NHE3 pIC50 > 7)	N#Cc1cc(Cl)cc2c1C[C@H](N1CCNCC1)[C@H]2Oc1ccc(S(=O)(=O)NC2CCN(C(=O)CCCNC(=O)NCCCC(=O)N3CCC(NS(=O)(=O)c4ccc(O[C@H]5c6cc(Cl)cc(C#N)c6C[C@@H]5N5CCNCC5)cc4)CC3)CC2)cc1 [Example 154, 4-([(1S,2S)-6-Chloro-4-cyano-2-(piperazin-1-yl)-2,3-dihydro-1H-inden-1-yl]oxy)-N-[1-(4-[3-(4-[4-([4-([(1S,2S)-6-chloro-4-cyano-2-(piperazin-1-yl)-2,3-dihydro-1H-inden-1-yl]oxy)phenyl]sulfonamido)piperidin-1-yl]-4-oxobutyl)ureido]butanoyl)piperidin-4-yl]benzenesulfonamide]	–	–	–

Source: patent US11242337B2, “Compounds useful for treating gastrointestinal tract disorders” (Ardelyx, Inc., priority 2017, dated 2022)
